Measurements from US20190070124A1, “COMPOSITIONS OF CB2 RECEPTOR SELECTIVE AGONISTS FOR TREATMENT OF MENTAL DISORDERS” (priority 2016, published 2019).
Entries after “also recorded” stand apart in the source; their conditions may differ.

Test system: murine model of schizophrenia
Assay: Prepulse inhibition (PPI) of the startle reflex in the PCP mouse model
Format: in vivo, mice
Method: In this experimental model, a weak stimulus (74-90 dB tone) inhibited the subsequent response to a strong stimulus (120 dB tone). Reduced prepulse inhibition of the startle reflex (PPI) was taken as an index of the positive symptoms of schizophrenia (Josselyn and Vaccarino, 1998).
PPI was assessed similarly to the method described by Varty et al. In the employed model, mice were placed in a startle chamber and allowed to acclimate for 5 min. A loudspeaker produced a 65 dB background white noise or the various acoustic pre-pulse stimuli (dB): 74, 78, 82, 86, and 90 (20 ms). A 120 dB (40 ms) stimulus was given first to induce a response to startle. The response of the mouse was transduced and stored by a computer. Each test session lasted for 11 min and consisted of 5 presentations of each of the trial types presented in random order and separated by 15 second intervals. The amount of prepulse inhibition was calculated as % PPI=[1−(startle response for prepulse+pulse)/(startle response for pulse alone)]×100.
The % PPI indicates of level of disruption of the sensorimotor gating system in schizophrenia but also serves as an indicator of memory function. The % PPI after administration of PCP and treatment of BCP in the PPI test also serve as an index of memory function, further supporting the function of the sensorimotor system.

[1] = PND 68, no PCP, BCP 5 mg/kg PND 43-61
[2] = PND 68, postnatal PCP, BCP 5 mg/kg PND 43-61
[3] = PND 106, postnatal PCP, BCP 5 mg/kg PND 43-61
[4] = age 8 weeks, postnatal BCP 10 mg/kg 1 h after PCP

trans-(1R,9S)-8-methylene-4,11,11trimethylbicyclo[7.2.0]undec-4-ene [BCP]
pre-pulse inhibition in saline-treated mice [1]: no substantial effect on saline-treated mice | response to pre-pulse tones in saline-treated mice [1]: no effect on saline-treated mice | response to pre-pulse tones [2]: significantly reversed the effect of PCP on response to pre-pulse tones; also recorded: reversed the effect of PCP on the response to tone | startle response at the end of the PPI test [2]: did not affect the response to startle at the end of the PPI test | startle response, females [2]: significantly reversed the effect of PCP on startle response in females | startle response, males [2]: no difference in the response to the startle stimuli between groups | pre-pulse inhibition (% PPI) (PND 68, postnatal PCP, BCP 5 mg/kg injected twice a week PND 43-61): significantly reversed the effect of PCP on pre-pulse inhibition; also recorded: reversed the effect of PCP on PPI | % pre-pulse inhibition (PPI) [3]: reversed the effect of PCP on the % pre-pulse inhibition (PPI); also recorded: reversed the effect of PCP on attention at PND106 (PPI test) | response to the startle stimuli (120 dB) [3]: no difference in the response to the startle stimuli (120 dB) between groups | response to tones [3]: reversed the effect of PCP on the response to tones | response to startle stimuli (age 8 weeks, males and females, postnatal BCP 10 mg/kg 1 h after PCP): not significantly different between groups | % prepulse inhibition, females [4]: No significant difference | % prepulse inhibition, males [4]: reversed this effect; also recorded: significantly reversed the effect of PCP on the sensorimotor-gate in males
